Where two headings read alike, the source gives them in different places. Numbered stars: 1 amine (or outer) side, 2 acyl side, 3 side chain; on linkers, the order of the positions; unused ones are H or OH. Bridge positions count the residues as written; N and C are the ends. Square brackets hold non-standard residues; d marks the D form. Peptide text beside a SMILES is read from it. Tartaroyl(2R,3R-(OAc)2) = CC(=O)O[C@@H](C(=O)[*:1])[C@@H](OC(C)=O)C(=O)[*:2]; Bip = N[C@@H](Cc1ccc(-c2ccccc2)cc1)C(=O)O; dPhe(4-NH2) = Nc1ccc(C[C@@H](N)C(=O)O)cc1; Phe(4-Br) = N[C@@H](Cc1ccc(Br)cc1)C(=O)O; Phe(4-NH2) = Nc1ccc(C[C@H](N)C(=O)O)cc1; d2Thi = N[C@H](Cc1cccs1)C(=O)O; GABA = NCCCC(=O)O

The target in test [1] is T1, TNFα / TNFα receptor (TNFα R1/Fc) (Homo sapiens, UniProt P01375).
T1 construct: purchased R&D Systems
In words: Inhibition of binding of TNFα to the TNFα receptor (plate ELISA competition). To be noted: Table 2. Put shortly: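 Plates were coated with TNFα at 15 nM. Test compound and 8.33 nM receptor-Fc (PBST, 2% DMSO) were first mixed in solution for 30 min at room temperature, then transferred to the plates for another 30 min. Competition was read by absorbance at 450 nm after HRP anti-human IgG Fc detection with TMB.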
(In general: In an ELISA, binding on a coated surface is turned into a signal by an enzyme label.)

Test [2] deals with TNF-α (degradation of IkB in HeLa cells or A431 cells). Briefly: Human cell-based assay: inhibition of TNF-α induced degradation of IkB. As to conditions: for inhibition at 5 µM: read-out: Inhibition at Various Compound Concentrations, 5 μM; for inhibition at 10 µM: read-out: Inhibition at Various Compound Concentrations, 10 μM.
[3] abbreviates: read-out: Activity (IC50, inhibition of TNFα binding to TNFα R1/Fc).
The mark [4] stands for this setting: 5 μM compound, HeLa or A431 cells.
The mark [5] stands for this setting: 10 μM compound, HeLa or A431 cells.
Setting [6] is: Activity (IC50, inhibition of TNFα binding to TNFα R1/Fc).

T1 sequence (P01375 77-233 limits assumed, species assumed): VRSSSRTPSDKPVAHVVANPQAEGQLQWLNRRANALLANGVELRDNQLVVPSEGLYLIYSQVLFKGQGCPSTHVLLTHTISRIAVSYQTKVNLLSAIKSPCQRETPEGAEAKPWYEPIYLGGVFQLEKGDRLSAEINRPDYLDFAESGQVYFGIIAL

In the case of `COC(=O)[C@H](CC(=O)O)NC(=O)[C@@H]1Cc2ccc(cc2)OCC(=O)N[C@@H](Cc2cccs2)C(=O)N[C@@H](Cc2ccc(-c3ccccc3)cc2)C(=O)N[C@@H](Cc2ccccc2)C(=O)N1` [Compound 327], in test [1] (setting [3]), the IC50 is below 10 µM. Besides, in test [2] (setting [4]), the inhibition at 5 µM was in the range of 10 to 50%. For the same compound, in test [2] (setting [5]), the inhibition at 10 µM is below 10%.
Consider `O=C1COc2ccc(cc2)C[C@@H](C(=O)N[C@@H](CCc2ccccc2)C(=O)O)NC(=O)[C@H](Cc2ccccc2)NC(=O)[C@H](Cc2ccc(-c3ccccc3)cc2)NC(=O)[C@H](Cc2cccs2)N1` [Compound 328], for which, in test [1] (setting [6]), the IC50 was below 10 µM. Also, the inhibition at 10 µM in test [2] lay in the range of 10 to 50%.
For the compound `COC(=O)c1ccc(-c2ccc(C[C@@H]3NC(=O)[C@@H](Cc4cccs4)NC(=O)[C@H](O)[C@@H](O)C(=O)Nc4ccc(cc4)C[C@@H](C(=O)O)NC(=O)[C@@H](Cc4ccccc4)NC3=O)cc2)cc1` [Compound 332], in test [1] (setting [3]), the IC50 is below 10 µM. The inhibition at 5 µM in test [2] (setting [4]) was below 10%.
On to `O=C(O)CCNC(=O)[C@@H]1Cc2ccc(cc2)OCC(=O)N[C@@H](Cc2cccs2)C(=O)N[C@@H](Cc2ccc(-c3ccccc3)cc2)C(=O)N[C@@H](Cc2ccccc2)C(=O)N1` [Compound 339], for which, in test [1] (setting [3]), the IC50 was below 10 µM. In addition, in test [2] (setting [4]), the inhibition at 5 µM is below 10%. The inhibition at 10 µM in test [2] (setting [5]) was 10 to 50%.
In the case of `C[C@@H](NC(=O)[C@@H]1Cc2ccc(cc2)OCC(=O)N[C@@H](Cc2cccs2)C(=O)N[C@@H](Cc2ccc(-c3ccccc3)cc2)C(=O)N[C@@H](Cc2ccccc2)C(=O)N1)C(=O)O` [Compound 341], in test [1] (setting [3]), the IC50 is below 10 µM. Besides, the inhibition at 10 µM in test [2] (setting [5]) was below 10%.
In the case of `O=C1COc2ccc(cc2)C[C@@H](C(=O)N[C@@H](Cc2ccc(O)cc2)C(=O)O)NC(=O)[C@H](Cc2ccccc2)NC(=O)[C@H](Cc2ccc(-c3ccccc3)cc2)NC(=O)[C@H](Cc2cccs2)N1` [Compound 343], the IC50 in test [1] (setting [3]) is below 10 µM. The inhibition at 5 µM in test [2] (setting [4]) was below 10%. Also, the inhibition at 10 µM in test [2] (setting [5]) was in the range of 10 to 50%.
Consider `O=C1COc2ccc(cc2)C[C@@H](C(=O)NC2(C(=O)O)CC2)NC(=O)[C@H](Cc2ccccc2)NC(=O)[C@H](Cc2ccc(-c3ccccc3)cc2)NC(=O)[C@H](Cc2cccs2)N1` [Compound 344], for which, in test [1] (setting [6]), the IC50 was below 10 µM. In test [2], the inhibition at 5 µM was in the range of 10 to 50% and the inhibition at 10 µM is 50 to 80%.
`O=C(O)[C@H](Cc1ccccc1)NC(=O)[C@@H]1Cc2ccc(cc2)NC(=O)[C@H](O)[C@@H](O)C(=O)N[C@H](Cc2cccs2)C(=O)N[C@@H](Cc2ccc(-c3ccccc3)cc2)C(=O)N[C@H](CCc2ccccc2)C(=O)N1` [Compound 350]: the IC50 in test [1] (setting [3]) is below 10 µM. Also, in test [2] (setting [4]), the inhibition at 5 µM lay in the range of 10 to 50%. For the same compound, the inhibition at 10 µM in test [2] (setting [5]) is 10 to 50%.
Regarding `O=C1COc2ccc(cc2)C[C@@H](C(=O)O)NC(=O)[C@H](Cc2ccccc2)NC(=O)[C@H](Cc2ccc(-c3ccc(F)cc3)cc2)NC(=O)[C@H](Cc2cccs2)N1` [Compound 363], in test [1] (setting [3]), the IC50 is below 10 µM. Besides, in test [2], the inhibition at 5 µM lay within 50 to 80% and the inhibition at 10 µM lay within 10 to 50%.
The corresponding values for `COc1ccc(-c2ccc(C[C@@H]3NC(=O)[C@H](Cc4cccs4)NC(=O)COc4ccc(cc4)C[C@@H](C(=O)O)NC(=O)[C@H](Cc4ccccc4)NC3=O)cc2)cc1` [Compound 364] are below 10 µM, 50 to 80% and 10 to 50%.
The corresponding values for `O=C1COc2ccc(cc2)C[C@@H](C(=O)O)NC(=O)[C@H](Cc2ccccc2)NC(=O)[C@H](Cc2ccc(-c3ccncc3)cc2)NC(=O)[C@H](Cc2cccs2)N1` [Compound 366] are below 10 µM, below 10% and below 10%.
Take `CC(=O)NCCCC[C@@H]1NC(=O)[C@@H](Cc2ccc(-c3ccccc3)cc2)NC(=O)[C@H](Cc2cccs2)NC(=O)COc2ccc(cc2)C[C@@H](C(=O)O)NC1=O` [Compound 369]: in test [1] (setting [3]), the IC50 is 10 to 30 µM. Besides, the inhibition at 5 µM in test [2] (setting [4]) was below 10%. Also, the inhibition at 10 µM in test [2] (setting [5]) is below 10%.
`NCCCC(=O)N[C@H]1CC(=O)Nc2ccc(cc2)C[C@@H](C(=O)O)NC(=O)[C@@H](Cc2ccccc2)NC(=O)[C@H](Cc2ccc(-c3ccccc3)cc2)NC(=O)[C@@H](Cc2cccs2)NC1=O` [Compound 379] (H-[GABA]D[d2Thi][Bip][dF][Phe(4-NH2)]-OH; lactam 2-6): the IC50 in test [1] (setting [3]) was below 10 µM. Also, the inhibition at 5 µM in test [2] (setting [4]) fell in the range of 50 to 80%. For the same compound, the inhibition at 10 µM in test [2] (setting [5]) lay within 10 to 50%.
The like results for `NCCCC(=O)N[C@@H]1CC(=O)Nc2ccc(cc2)C[C@@H](C(=O)O)NC(=O)[C@@H](Cc2ccccc2)NC(=O)[C@H](Cc2ccc(-c3ccccc3)cc2)NC(=O)[C@@H](Cc2cccs2)NC1=O` [Compound 380] (H-[GABA][dD][d2Thi][Bip][dF][Phe(4-NH2)]-OH; lactam 2-6) were, in that order, below 10 µM, below 10% and below 10%.
Consider `NCCCC(=O)N[C@H]1CC(=O)N[C@H](Cc2cccs2)C(=O)N[C@@H](Cc2ccc(-c3ccccc3)cc2)C(=O)N[C@H](Cc2ccccc2)C(=O)N[C@H](C(=O)O)Cc2ccc(cc2)NC1=O` [Compound 381], for which, in test [1] (setting [3]), the IC50 was below 10 µM. Further, in test [2] (setting [4]), the inhibition at 5 µM was below 10%. In addition, in test [2] (setting [5]), the inhibition at 10 µM was below 10%.
In the case of `NCCCC(=O)N[C@@H]1CC(=O)N[C@H](Cc2cccs2)C(=O)N[C@@H](Cc2ccc(-c3ccccc3)cc2)C(=O)N[C@H](Cc2ccccc2)C(=O)N[C@H](C(=O)O)Cc2ccc(cc2)NC1=O` [Compound 382], the IC50 in test [1] (setting [3]) was below 10 µM. The inhibition at 5 µM in test [2] (setting [4]) is 10 to 50%. Moreover, in test [2] (setting [5]), the inhibition at 10 µM was below 10%.
The corresponding values for `C[C@@H](NC(=O)[C@@H]1Cc2ccc(cc2)OCC(=O)N[C@@H](Cc2cccs2)C(=O)N[C@H](Cc2ccc(-c3ccccc3)cc2)C(=O)N[C@@H](Cc2ccccc2)C(=O)N1)C(=O)O` [Compound 384] are below 10 µM, below 10% and below 10%.
With `C[C@H](NC(=O)[C@@H]1Cc2ccc(cc2)OCC(=O)N[C@@H](Cc2cccs2)C(=O)N[C@H](Cc2ccc(-c3ccccc3)cc2)C(=O)N[C@@H](Cc2ccccc2)C(=O)N1)C(=O)O` [Compound 385], the IC50 in test [1] (setting [3]) is below 10 µM. Further, the inhibition at 5 µM in test [2] (setting [4]) was 50 to 80%. In addition, the inhibition at 10 µM in test [2] (setting [5]) is above 80%.
As to `O=C(O)CCCNC(=O)[C@@H]1Cc2ccc(cc2)OCC(=O)N[C@@H](Cc2cccs2)C(=O)N[C@H](Cc2ccc(-c3ccccc3)cc2)C(=O)N[C@@H](Cc2ccccc2)C(=O)N1` [Compound 386], the IC50 in test [1] (setting [3]) is below 10 µM. In addition, in test [2] (setting [4]), the inhibition at 5 µM was below 10%. Moreover, in test [2] (setting [5]), the inhibition at 10 µM was below 10%.
As to `COC(=O)[C@H](CC(=O)O)NC(=O)[C@@H]1Cc2ccc(cc2)OCC(=O)N[C@@H](Cc2cccs2)C(=O)N[C@H](Cc2ccc(-c3ccccc3)cc2)C(=O)N[C@@H](Cc2ccccc2)C(=O)N1` [Compound 388], the IC50 in test [1] (setting [3]) is below 10 µM. The inhibition at 5 µM in test [2] (setting [4]) was below 10%. In addition, the inhibition at 10 µM in test [2] (setting [5]) is 10 to 50%.
In the case of `O=C1COc2ccc(cc2)C[C@@H](C(=O)NCCO)NC(=O)[C@H](Cc2ccccc2)NC(=O)[C@@H](Cc2ccc(-c3ccccc3)cc2)NC(=O)[C@H](Cc2cccs2)N1` [Compound 390], the IC50 in test [1] (setting [6]) was below 10 µM. Moreover, in test [2], the inhibition at 5 µM is below 10% and the inhibition at 10 µM is 50 to 80%.
The corresponding values for `O=C1COc2ccc(cc2)C[C@@H](C(=O)NC2(C(=O)O)CC2)NC(=O)[C@H](Cc2ccccc2)NC(=O)[C@@H](Cc2ccc(-c3ccccc3)cc2)NC(=O)[C@H](Cc2cccs2)N1` [Compound 391] are below 10 µM, 10 to 50% and 10 to 50%.
As to `O=C(O)CCCCCNC(=O)[C@@H]1Cc2ccc(cc2)OCC(=O)N[C@H](Cc2cccs2)C(=O)N[C@@H](Cc2ccc(-c3ccccc3)cc2)C(=O)N[C@H](CCc2ccccc2)C(=O)N1` [Compound 395], in test [1] (setting [3]), the IC50 was below 10 µM. In addition, in test [2] (setting [4]), the inhibition at 5 µM is below 10%. In addition, in test [2] (setting [5]), the inhibition at 10 µM was below 10%.
Turning to `O=C1COc2ccc(cc2)C[C@@H](C(=O)O)NC(=O)[C@H](Cc2ccccc2)NC(=O)[C@H](Cc2ccc(-c3ccc(C(=O)OCc4ccccc4)cc3)cc2)NC(=O)[C@H](Cc2cccs2)N1` [Compound 396], the IC50 in test [1] (setting [3]) is below 10 µM. In addition, in test [2], the inhibition at 5 µM fell in the range of 10 to 50% and the inhibition at 10 µM was 50 to 80%.
Take `CC(=O)O[C@H]1C(=O)Nc2ccc(cc2)C[C@H](C(=O)N[C@@H](Cc2ccccc2)C(=O)O)NC(=O)[C@@H](Cc2ccccc2)NC(=O)[C@H](Cc2ccc(Br)cc2)NC(=O)[C@@H](Cc2cccs2)NC(=O)[C@@H]1OC(C)=O` [Compound 410] ([d2Thi][Phe(4-Br)][dF][dPhe(4-NH2)]F-OH; linker N-4 via Tartaroyl(2R,3R-(OAc)2)): the IC50 in test [1] (setting [3]) was below 10 µM. The inhibition at 5 µM in test [2] (setting [4]) was below 10%. Besides, in test [2] (setting [5]), the inhibition at 10 µM lay within 10 to 50%.

These data come from patent US8338565B2, “Macrocyclic compounds for inhibition of tumor necrosis factor alpha” (Ensemble Therapeutics Corporation, priority 2008, dated 2012).
